Assays:
[1] = target: T1, flavonoid 7-O-glucuronosyltransferase VpF7GAT (Veronica persica, UniProt C0STS8); assay: Selectivity of VpF7GAT to glycosyl acceptor substrates (glycosyl donor: UDP-glucuronic acid); format: biochemical; settings: for activity of VpF7GAT with the glycosyl acceptor substrate (in words, summary in the description): compared to other glycosyl acceptor substrates; for relative activity of glycosyl acceptor substrate / glucuronosyltransferase activity (in words): glycosyl donor UDP-glucuronic acid; for relative activity of glycosyl acceptor substrate: activity to apigenin made 100%, FIG. 3; for glucuronosyltransferase activity (in words): reaction conditions for this enzyme
Protocol: (§1) Standard reaction conditions are as follows. […] The mixture was reacted at 30° C. for 1 minute. The reaction was then terminated by adding 50 μl of CH3CN containing 0.5% TFA. The product was analyzed by reversed phase HPLC (LC-2010 System, Shimadzu Corporation).
(§2) The conditions for HPLC are as follows. Develosil C30-UG-5 column (4.6 mm×150 mm, Nomura Chemical) was used with a column oven at 40° C., and the moving phase A (0.1% TFA/H2O) and the moving phase B (0.1% TFA/90% CH3CN) were used. The conditions for elution include a linear density gradient (B20%→B70%) for 15 minutes, then retention with B70% for further 1 minute and again reverting to B20%, followed by equilibration for 20 minutes. HPLC was performed at the flow of 1 ml/min. Detection was performed at 280 and 360 nm using a SPD-M10A Photodiode Array Detector (Shimadzu Corporation).

[2] = target: T1, flavonoid 7-O-glucuronosyltransferase VpF7GAT; settings: glycosyl acceptor substrate apigenin; activity of UDP-glucuronic acid made 100%
Protocol: as §1, §2

T1 sequence (C0STS8 entry or part of it): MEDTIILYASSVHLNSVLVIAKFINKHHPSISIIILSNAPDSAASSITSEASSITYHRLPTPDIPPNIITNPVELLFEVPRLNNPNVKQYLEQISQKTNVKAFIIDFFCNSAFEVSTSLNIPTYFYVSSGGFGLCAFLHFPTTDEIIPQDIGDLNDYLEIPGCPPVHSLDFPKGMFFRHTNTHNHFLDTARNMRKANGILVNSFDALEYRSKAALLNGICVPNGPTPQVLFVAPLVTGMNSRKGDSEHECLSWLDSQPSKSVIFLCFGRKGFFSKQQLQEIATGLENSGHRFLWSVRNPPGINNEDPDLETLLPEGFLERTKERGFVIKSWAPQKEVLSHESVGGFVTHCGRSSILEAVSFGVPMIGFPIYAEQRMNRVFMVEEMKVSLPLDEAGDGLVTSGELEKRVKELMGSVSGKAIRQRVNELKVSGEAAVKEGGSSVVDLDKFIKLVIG

Row | Compound | activity of VpF7GAT with the glycosyl acceptor substrate (in words, summary in the description) [1] | relative activity of glycosyl acceptor substrate [1] | glucuronosyltransferase activity (in words) [1] | relative activity of UDP glycosyl donor [2]
1 | O=c1c(O)c(-c2ccc(O)cc2)oc2cc(O)cc(O)c12 [kaempferol] | strong | 13.3% |  | 
2 | O=C1C[C@@H](c2ccc(O)cc2)Oc2cc(O)cc(O)c21 [naringenin] | strong | 18.0% |  | 
3 | O=c1c(O)c(-c2ccc(O)c(O)c2)oc2cc(O)cc(O)c12 [quercetin] | shows an activity | 1.0% |  | 
4 | O=c1cc(-c2ccc(O)cc2)oc2cc(O)c(O)c(O)c12 [scutellarein] |  | 88.3% |  | 
5 | O=c1c(-c2ccc(O)cc2)coc2cc(O)cc(O)c12 [genistein] |  |  | not observed | 
6 | O=C(O)[C@H]1O[C@H](OP(=O)(O)OP(=O)(O)OC[C@H]2O[C@@H](n3ccc(=O)[nH]c3=O)[C@H](O)[C@@H]2O)[C@H](O)[C@@H](O)[C@@H]1O [UDP-glucuronic acid] |  |  |  | 100%
7 | COc1cc(-c2cc(=O)c3c(O)cc(O)cc3o2)ccc1O [chrysoeriol] | strong | 34.0% |  | 
8 | O=c1ccc2cc(O)c(O)cc2o1 [esculetin] |  |  | not observed | 
9 | O=c1cc(-c2ccc(O)c(O)c2)oc2c([C@@H]3O[C@H](CO)[C@@H](O)[C@H](O)[C@H]3O)c(O)cc(O)c12 [orientin] |  |  | not observed | 
10 | O=c1cc(-c2ccccc2)oc2cc(O)c(O)c(O)c12 [baicalein] | shows an activity | 13.1% |  | 
11 | Oc1ccc(C=Cc2cc(O)cc(O)c2)cc1 [resveratrol] |  |  | not observed | 
12 | Oc1cc2c(cc1[C@H]1OC[C@H]3[C@@H]1CO[C@@H]3c1ccc3c(c1)OCO3)OCO2 [sesaminol] |  |  | not observed | 
13 | COc1ccc(-c2cc(=O)c3c(O)cc(O)cc3o2)cc1O [diosmetin] | strong | 12.9% |  | 
14 | O=c1cc(-c2ccc(O)cc2)oc2cc(O)cc(O)c12 [apigenin] | strong | 100% |  | 
15 | O=c1cc(-c2ccc(O)cc2)oc2cc(O)c([C@@H]3O[C@H](CO)[C@@H](O)[C@H](O)[C@H]3O)c(O)c12 [isovitexin] |  |  | not observed | 
